The values that follow come from PMC7226045, “Ensartinib (X-396) Effectively Modulates Pharmacokinetic Resistance Mediated by ABCB1 and ABCG2 Drug Efflux Transporters and CYP3A4 Biotransformation Enzyme” (Cancers, 2020).

Where only a bound is given, the exact number is not on record here.

Data set [1] has as its system A431-ABCC1 cells. As to the kind of experiment: MTT proliferation assay, A431-ABCC1. The class given is cell-based. The note with it: Homo sapiens, 48 h, read-out: IC50, sensitivity to ensartinib. On the procedure:
MTT proliferation assay was performed as described previously.
Background: Tetrazolium dyes change colour on reduction, which living cells bring about.

Data set [2] is described as follows: XTT proliferation / drug combination assay, HL60-ABCB1. Conditions: human, HL60-ABCB1 cells. The method, then: (§1) The MTT method is not readily adapted for use with suspension cell cultures, therefore the XTT assay was used to assess the proliferation of HL60 cells. Briefly, HL60-par, HL60-ABCB1, HL60-ABCG2, and HL60-ABCC1 cells were seeded at 2 × 10^4 cells/well in 96-well culture plates. Immediately after seeding, dilutions of the tested drugs or drug combinations were added to the cells. The plates were then incubated under standard conditions (37 °C, 5% CO2) for 48 h, after which XTT solution in PBS (1 mg/mL) and phenazine methosulfate (7.50 µg/mL) were added to the cells and the plates were incubated for another 5 h. Finally, the cells’ absorbance was measured at 450 nm using a microplate reader (Infinite M200, Tecan, Salzburg, Austria). This method was used to assess the effect of ABC transporters on sensitivity to ensartinib and in drug combination assays.
(§2) Experiments focusing on the modulation of ABC transporter-mediated resistance were performed as described previously. The parent MDCKII and HL60 cells and their ABCB1-, ABCG2-, and ABCC1-overexpressing counterparts were seeded at the densities specified above onto 96-well culture plates and cultured for 24 h. The medium was subsequently replaced with serial dilutions of ensartinib alone or with various concentrations of a model MDR-susceptible cytostatic agent (daunorubicin or mitoxantrone) with or without 10 µM ensartinib. After 48 h incubation, the cells’ viability was determined as described above. In addition to performing IC50-shift analyses, the viability measurements were converted to FA (fraction of cells affected) values and the effects of drug combinations were quantified using the Chou-Talalay combination index (CI) method as implemented in CompuSyn 3.0.1 (ComboSyn Inc., Paramus, NJ, USA). The effects of concomitantly administered drugs were classified as synergistic (CI < 0.9), additive (0.9 < CI < 1.1), or antagonistic (CI > 1.1) based on the computed CI values.

The subject of data set [3] is HL60-ABCB1 cells. The description is as above. The note with it: HL60-ABCB1. On the procedure:
as §1, §2

Data set [4] has as its target T1, ABCC1 (Homo sapiens, UniProt P33527).
T1 construct: expressed in transfected cells; host or cells: MDCKII-ABCC1 (from Dr. Alfred Schinkel, The Netherlands Cancer Institute)
As to the kind of experiment: calcein AM accumulation assay in MDCKII-ABCC1 cells. The class given is cell-based. The note with it: read-out: IC50, inhibition of ABCC1-mediated calcein AM efflux. The method, then:
Cellular accumulation assay with hoechst 33342 and calcein AM was performed as described previously. Briefly, MDCKII-par, MDCKII-ABCB1, MDCKII-ABCG2, and MDCKII-ABCC1 cells were seeded at densities of 5.0 × 10^4, 5.0 × 10^4, 5.5 × 10^4, and 6.0 × 10^4 cells/well, respectively, on a transparent 96-well plate and grown to full confluence for 24 h under standard conditions. The cells were then washed twice with 1 × PBS, after which was added either a dilution of ensartinib in Opti-MEM (1, 5, 10, 25, or 50 µM) or a specific inhibitor to act as a positive control (1 µM LY335979, 1 µM Ko143, or 25 µM MK-571 for ABCB1, ABCG2, or ABCC1, respectively). Cells were pre-incubated for 10 min, then 8 µM hoechst 33342 (a model substrate for ABCB1 and ABCG2) or 2 µM calcein AM (ABCC1 substrate) diluted in Opti-MEM was quickly added to all wells other than those containing blank samples. The intracellular levels of the substrates were then determined at 1 min intervals for 30 min using a microplate reader (Infinite M200 Pro, Tecan, Männedorf, Switzerland). Fluorescence was monitored in bottom mode using excitation/emission wavelengths of 350/465 and 485/535 nm for hoechst 33342 and calcein AM, respectively.

Data set [5] concerns ABCB1, ABCG2, ABCC1 mRNA. As to the kind of experiment: Gene induction study (qRT-PCR), ABC transporter mRNA. The class given is cell-based, human. The note with it: 0.5 µM ensartinib; 24 and 48 h; Caco-2, LS174T, A549, NCI-H1299 cells. The method, then:
Gene induction studies were performed with minor modifications as described recently. Although all gene induction studies involved the use of quantitative real-time reverse transcription PCR (qRT-PCR) to measure mRNA levels, the methods used for specific cell lines varied considerably. Therefore, they are described separately.
For transporter-oriented studies, A549 (24 × 10^4 cells/well), NCI-H1299 (18 × 10^4 cells/well), Caco-2 (50 × 10^4 cells/well), or LS174T (100 × 10^4 cells/well) cells were plated in 12-well plates 24 h before the experiment. Subsequently, the medium was replaced with fresh medium containing 0.5 µM ensartinib, 25 µM rifampicin, or 0.1% DMSO (vehicle control). […] The RNA yield was measured using a NanoDrop ND-1000 spectrophotometer (American Laboratory Trading, East Lyme, CT, USA) while RNA quality and integrity were verified by agarose gel electrophoresis. […] The expression of ABCB1, ABCG2 and ABCC1 was assessed using gb Easy PCR Master Mix and TaqMan qRT-PCR systems in 384-well plates according to the manufacturer´s instructions, amplifying 20 ng of cDNA per reaction. qRT-PCR was performed using QuantStudio 6 (Life Technologies, Carlsbad, CA, USA) with predefined thermal cycling conditions (95 °C for 3 min then 40 repeats of a cycle of 95 °C for 10 s and 60 °C for 20 s). […]
For orientation: In qPCR the cycle at which signal appears reflects the starting amount.

The nature of data set [6]: XTT proliferation / drug combination assay, HL60-ABCG2. The class given is cell-based, human. The note with it: human, HL60-ABCG2 cells, 48 h, XTT, read-out: IC50, sensitivity to ensartinib. On the procedure: as §1, §2
Data set [7] has as its system HL60-ABCG2 cells. The data set is described as above. The class given is cell-based, human. The method, then: as §1, §2

T1 sequence (P33527 whole entry): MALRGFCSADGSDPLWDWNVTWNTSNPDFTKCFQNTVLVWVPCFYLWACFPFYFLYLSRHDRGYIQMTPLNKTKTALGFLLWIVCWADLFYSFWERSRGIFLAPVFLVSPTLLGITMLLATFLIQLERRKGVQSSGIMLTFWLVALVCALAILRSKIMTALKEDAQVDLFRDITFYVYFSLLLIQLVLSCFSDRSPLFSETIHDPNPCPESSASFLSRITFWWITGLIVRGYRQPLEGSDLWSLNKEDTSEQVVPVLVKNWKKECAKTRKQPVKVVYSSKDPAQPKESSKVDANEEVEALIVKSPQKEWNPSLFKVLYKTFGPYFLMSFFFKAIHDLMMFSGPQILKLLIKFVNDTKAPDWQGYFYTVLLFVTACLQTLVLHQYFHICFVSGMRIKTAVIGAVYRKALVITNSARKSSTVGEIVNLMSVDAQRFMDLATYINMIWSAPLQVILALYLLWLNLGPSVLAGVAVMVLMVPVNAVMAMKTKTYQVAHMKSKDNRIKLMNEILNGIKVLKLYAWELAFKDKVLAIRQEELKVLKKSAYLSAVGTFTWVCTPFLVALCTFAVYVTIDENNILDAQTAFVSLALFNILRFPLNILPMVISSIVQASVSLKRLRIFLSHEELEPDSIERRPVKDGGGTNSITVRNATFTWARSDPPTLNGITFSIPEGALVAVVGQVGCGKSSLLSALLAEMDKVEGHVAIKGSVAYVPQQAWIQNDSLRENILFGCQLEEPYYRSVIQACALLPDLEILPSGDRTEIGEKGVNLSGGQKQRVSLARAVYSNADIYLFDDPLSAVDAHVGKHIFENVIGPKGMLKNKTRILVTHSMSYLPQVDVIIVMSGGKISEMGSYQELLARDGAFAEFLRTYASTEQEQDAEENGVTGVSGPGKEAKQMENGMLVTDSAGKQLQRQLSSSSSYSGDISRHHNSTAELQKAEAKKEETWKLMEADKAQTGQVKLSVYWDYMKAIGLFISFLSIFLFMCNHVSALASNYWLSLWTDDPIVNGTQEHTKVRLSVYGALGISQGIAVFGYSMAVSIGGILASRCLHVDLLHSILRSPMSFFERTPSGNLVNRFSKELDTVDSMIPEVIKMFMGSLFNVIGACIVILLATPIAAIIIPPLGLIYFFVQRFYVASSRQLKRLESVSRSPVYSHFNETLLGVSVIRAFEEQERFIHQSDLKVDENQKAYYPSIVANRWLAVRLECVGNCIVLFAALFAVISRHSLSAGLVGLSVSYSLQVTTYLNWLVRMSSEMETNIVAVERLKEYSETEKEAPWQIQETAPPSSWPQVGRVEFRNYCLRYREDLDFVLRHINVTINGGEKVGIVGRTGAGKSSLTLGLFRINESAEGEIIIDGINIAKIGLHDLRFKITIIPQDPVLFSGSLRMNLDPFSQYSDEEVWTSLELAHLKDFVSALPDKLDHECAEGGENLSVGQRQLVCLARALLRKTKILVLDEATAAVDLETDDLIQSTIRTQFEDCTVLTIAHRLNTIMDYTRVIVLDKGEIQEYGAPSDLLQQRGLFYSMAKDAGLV

What is called IC50 is the concentration that inhibits the measured activity by half. For `C[C@@H]1CN(C(=O)c2ccc(NC(=O)c3cc(O[C@H](C)c4c(Cl)ccc(F)c4Cl)c(N)nn3)cc2)C[C@H](C)N1` [ensartinib, Ensartinib], the IC50 in data set [1] is 1.86 µM; in data set [4], more than 50 µM. The IC50 at 48 h amounted to 29.6 µM in data set [2] and 24.3 µM in data set [6]. The “combination effect (Chou-Talalay combination index)” value in data set [3] (10 µM ensartinib with daunorubicin) and in data set [7] (10 µM ensartinib with mitoxantrone) was “synergistic (synergistic (CI < 0.9))” throughout. Moreover, the “RR (reversal ratio)” value in data set [3] (daunorubicin, IC50 single drug / IC50 combined with 10 µM ensartinib) was found to be 22.1; in data set [7] (mitoxantrone, IC50 single drug / IC50 combined with 10 µM ensartinib) it was 18.6. Also, in data set [5], the “change in mRNA levels of ABCB1, ABCG2, ABCC1” value was “did not increase or reduce the mRNA levels of ABCB1, ABCG2, or ABCC1 by more than 100% or 50%”.
